Measured values: PMC4368451 (Cancer chemotherapy and pharmacology, 2015)

Experiments:
[1] = tested on: A549 non-small cell lung carcinoma xenograft; assay: A549 xenograft model; assay type: in vivo, Female athymic NCr-nu/nu nude mice; settings: for tumor growth: 5 mg/kg i.p. every other day for thirteen days; for TGI % (tumor growth inhibition): 5 mg/kg i.p. every other day for 13 days, day 23, relative to control
A549 tumor = assay type: in vivo, Female athymic NCr-nu/nu nude mice; settings: 5 mg/kg i.p. on four consecutive days
[2] = tested on: SW620 (colorectal adenocarcinoma) cells; assay: Cell cycle distribution; assay type: cell-based; settings: SW620, 24 hours
[3] = Prodrug processing in plasma or whole blood; assay type: in vitro ADME

| Compound | tumor growth [1] | TGI % (tumor growth inhibition) [1] | TGI % (tumor growth inhibition) ([1]; listed as Larg.) | acetylated H3 and H4 in tumor lysates (western blot) relative to control (A549 tumor) | cell cycle dose dependence [2] | concentration for G2 arrest [2] | prodrug level after room temperature incubation in plasma or whole blood [3] |
| --- | --- | --- | --- | --- | --- | --- | --- |
| Largazole thiol | tumor growth rate was slower |  |  |  |  |  |  |
| CCCCCCCC(=O)SCC/C=C/[C@@H]1CC(=O)NCc2nc(cs2)C2=N[C@@](C)(CS2)C(=O)N[C@@H](C(C)C)C(=O)O1 [Largazole] | tumor growth rate was slower | 32% | 32% | increased acetylation relative to control | clear switch from G1 to G2 arrest with increasing concentration | > 50 nM | < LLOQ after ten minutes |
